{"source": "patent US8674063B2", "about": "“Chimerical peptidic molecules with antiviral properties against the viruses of the Flaviviridae family” (Centro de Ingenieria Genetica y Biotecnologia, priority 2006, dated 2014)", "type_in_all_cases": "cell-based", "key": {"[1]": {"system": "dengue 2 virus (DV2, strain S16803)", "assay": "Plaque reduction neutralization assay (PRNT) in Vero cells, dengue 2 virus", "details": "for antiviral activity (inhibition of infection by DV2, plaque reduction), in words: Vero cells", "description": "Vero cells were grown in 24-well plates to approximately 90% confluence, and washed twice with MEM medium without FCS. Peptide dilutions were added according to the particular assay and incubated typically during 1 h at 37° C. After the incubation, the virus was added at a multiplicity of infection of 0.1, followed by a subsequent incubation for 1 hour at 37 C. In certain experiments the peptides were added simultaneously with the virus (without preincubation) or the peptide preincubation time was modified. At the end of the second incubation, the unbound virus was eliminated by washing, and the cells were incubated for 5 days at 37 C in high density medium (MEM supplemented with non essential amino acids, 1% FCS, 1% carboxymethylcellulose) in order to propitiate the appearance of lytic plaques. The plaques were visualized by staining with 0.1% Naphtol Blue Black in 0.15 Mol/L sodium acetate. Two replicates were used per experimental point in each assay, and three independent determinations were performed. The inhibition percentage was calculated according to the expression: […]\nIn order to determine the role of the cell penetrating peptide and the ER retention signal on the antiviral activity of peptides of the present invention we tested peptides No 1, 2, 3 and 4 of table 1 for inhibition of the viral infection by VD2 in Vero cells, using the assay described in the example 2."}, "[2]": {"assay": "Cytotoxic effect (CTE) of peptides on Vero cell monolayer", "details": "Vero cell monolayer; Vero cells; read-out: CTE: peptide concentration causing damage to 50% of the monolayer"}, "Vero cells": {"system": "Vero cells", "assay": "Cytotoxic effect (CTE) of peptides on Vero cell monolayer", "details": "at the assayed conditions"}}, "data": [{"molecule": "segment [I] of peptide NS2Bden2+TAT (SSPILSITISEDG), lacks the cell penetrating segment", "values": [{"measurement": "antiviral activity (inhibition of infection by DV2, plaque reduction), in words", "setting": "[1]", "result": "does not inhibit"}, {"measurement": "antiviral activity (inhibition of infection by DV2, plaque reduction), in words", "setting": "[1]; listed as NS3pro protease activation inhibitor segment [I]", "result": "does not show antiviral activity in vitro"}]}, {"molecule": "CC[C@H](C)[C@H](NC(=O)[C@H](CCCCN)NC(=O)[C@@H](NC(=O)[C@H](CCC(N)=O)NC(=O)[C@@H](N)CCCNC(=N)N)[C@@H](C)CC)C(=O)N[C@@H](Cc1c[nH]c2ccccc12)C(=O)N[C@@H](Cc1ccccc1)C(=O)N[C@@H](CCC(N)=O)C(=O)N[C@@H](CC(N)=O)C(=O)N[C@@H](CCCNC(=N)N)C(=O)N[C@@H](CCCNC(=N)N)C(=O)N[C@@H](CCSC)C(=O)N[C@@H](CCCCN)C(=O)N[C@@H](Cc1c[nH]c2ccccc12)C(=O)N[C@@H](CCCCN)C(=O)N[C@@H](CCCCN)C(=O)NCC(=O)NCC(=O)NCC(=O)N[C@@H](CO)C(=O)N[C@@H](CO)C(=O)N1CCC[C@H]1C(=O)N[C@H](C(=O)N[C@@H](CC(C)C)C(=O)N[C@@H](CO)C(=O)N[C@H](C(=O)N[C@H](C(=O)N[C@H](C(=O)N[C@@H](CO)C(=O)N[C@@H](CCC(=O)O)C(=O)N[C@@H](CC(=O)O)C(=O)NCC(N)=O)[C@@H](C)CC)[C@@H](C)O)[C@@H](C)CC)[C@@H](C)CC", "note": "[NS2Bden2-pP2]", "values": [{"measurement": "CC50", "setting": "[2]", "result": 50, "unit": "µM"}, {"measurement": "toxicity on the cells, in words", "setting": "Vero cells", "result": "significant cytotoxicity"}]}, {"molecule": "CC[C@H](C)[C@H](NC(=O)[C@H](CO)NC(=O)[C@H](CC(C)C)NC(=O)[C@@H](NC(=O)[C@@H]1CCCN1C(=O)[C@H](CO)NC(=O)[C@H](CO)NC(=O)CNC(=O)CNC(=O)CNC(=O)[C@H](CCC(N)=O)NC(=O)[C@@H]1CCCN1C(=O)[C@@H]1CCCN1C(=O)[C@H](CCCNC(=N)N)NC(=O)[C@H](CCCNC(=N)N)NC(=O)[C@H](CCCNC(=N)N)NC(=O)[C@H](CCC(N)=O)NC(=O)[C@H](CCCNC(=N)N)NC(=O)[C@H](CCCNC(=N)N)NC(=O)[C@H](CCCCN)NC(=O)[C@H](CCCCN)NC(=O)[C@H](CCCNC(=N)N)NC(=O)CNC(=O)[C@@H](N)Cc1ccc(O)cc1)[C@@H](C)CC)C(=O)N[C@H](C(=O)N[C@H](C(=O)N[C@@H](CO)C(=O)N[C@@H](CCC(=O)O)C(=O)N[C@@H](CC(=O)O)C(=O)NCC(=O)NCC(=O)NCC(=O)N[C@@H](CCCCN)C(=O)N[C@@H](CC(=O)O)C(=O)N[C@@H](CCC(=O)O)C(=O)N[C@@H](CC(C)C)C(=O)O)[C@@H](C)CC)[C@@H](C)O", "note": "[NS2Bden2 + TAT + KDEL]", "values": [{"measurement": "CC50", "setting": "[2]", "result": "> 150", "unit": "µM"}]}, {"molecule": "CC[C@H](C)[C@H](NC(=O)[C@H](CO)NC(=O)[C@H](CC(C)C)NC(=O)[C@@H](NC(=O)[C@@H]1CCCN1C(=O)[C@H](CO)NC(=O)[C@H](CO)NC(=O)CNC(=O)CNC(=O)CNC(=O)[C@H](CCCNC(=N)N)NC(=O)[C@H](CCCNC(=N)N)NC(=O)[C@H](CCCNC(=N)N)NC(=O)[C@H](CCCNC(=N)N)NC(=O)[C@H](CCCNC(=N)N)NC(=O)[C@H](CCCNC(=N)N)NC(=O)[C@H](CCCNC(=N)N)NC(=O)[C@H](CCCNC(=N)N)NC(=O)[C@H](CCCNC(=N)N)NC(=O)[C@@H](N)CCCNC(=N)N)[C@@H](C)CC)C(=O)N[C@H](C(=O)N[C@H](C(=O)N[C@@H](CO)C(=O)N[C@@H](CCC(=O)O)C(=O)N[C@@H](CC(=O)O)C(=O)NCC(N)=O)[C@@H](C)CC)[C@@H](C)O", "note": "[NS2Bden2-pRR]", "values": [{"measurement": "CC50", "setting": "[2]", "result": "> 50", "unit": "µM"}]}, {"molecule": "CC[C@H](C)[C@H](NC(=O)[C@H](CO)NC(=O)[C@H](CC(C)C)NC(=O)[C@@H](NC(=O)[C@@H]1CCCN1C(=O)[C@H](CO)NC(=O)[C@H](CO)NC(=O)CNC(=O)CNC(=O)CNC(=O)[C@H](CCC(N)=O)NC(=O)[C@@H]1CCCN1C(=O)[C@@H]1CCCN1C(=O)[C@H](CCCNC(=N)N)NC(=O)[C@H](CCCNC(=N)N)NC(=O)[C@H](CCCNC(=N)N)NC(=O)[C@H](CCC(N)=O)NC(=O)[C@H](CCCNC(=N)N)NC(=O)[C@H](CCCNC(=N)N)NC(=O)[C@H](CCCCN)NC(=O)[C@H](CCCCN)NC(=O)[C@H](CCCNC(=N)N)NC(=O)CNC(=O)[C@@H](N)Cc1ccc(O)cc1)[C@@H](C)CC)C(=O)N[C@H](C(=O)N[C@H](C(=O)N[C@@H](CO)C(=O)N[C@@H](CCC(=O)O)C(=O)N[C@@H](CC(=O)O)C(=O)NCC(N)=O)[C@@H](C)CC)[C@@H](C)O", "note": "[NS2Bden2+TAT]", "values": [{"measurement": "CC50", "setting": "[2]", "result": 150, "unit": "µM"}]}, {"molecule": "TAT peptide: YGRKKRRQRRRPPQ; SEQ ID NO 64; cell penetrating TAT peptide, negative control (Description of the Artificial Sequence chimerical peptide) [reference compound]", "values": [{"measurement": "number of plaques in presence of peptide", "setting": "[1]; DV2, Vero cells, FIG. 2B", "result": "increase in the number of plaques"}, {"measurement": "antiviral activity (inhibition of infection by DV2, plaque reduction), in words", "setting": "[1]", "result": "did not show antiviral activity"}]}]}
